The source of these data is patent EP1233748B1, “RETINALDEHYDE COMBINATION WITH ANTIFUNGAL ACTIVITY” (Pierre Fabre Dermo-Cosmetique, priority 1999, dated 2001).

What all share (assay type): cell-based
In assay [1] the test system is Malassézia furfur IP 1363-82; Malassezia furfur sauvage. Description: Combination study, checkerboard method on microplate, CMF in association and FIC Index. The settings on record: for CMF % Associés: product in association (Rétinal + Ald. C11), checkerboard, 32°C. As to the method: (§1) *souche : Malassézia furfur IP 1363-82 Malassezia furfur sauvage collecté auprès d'un pityriasis versicolor chez un patient hospitalisé au Centre Hospitalier Régional de Toulouse Rangueil (France). *milieu de culture : Dixon modifié (sous forme de bouillon et sous forme gélosée par ajout d'agar) *appareillage : microplaques stériles Nunc ® Nunclon à 96 puits eau distillée stérile tubes à essais stériles étuve à 32°C spectrophotomètre et cuves adaptées billes de verre stériles *produits : les solutions-mères des produits cités ci-dessous ont été préparés comme suit : • Trans rétinal :solution à 1% dans 20% d'éthanol 95 complétée avec de l'eau distillée stérile. • undécanal :solution à 1% dans 10% de Tween 80 complétée par de l'eau distillée stérile.
Des solutions-mères comme décrites précédemment égales à deux fois la CMF sont réalisées. La méthode de l'échiquier rapportée sur microplaque est utilisée pour croiser les séries de dilution au demi de chaque actif. Après ensemencement et incubation à 32°C, on procède à la lecture des CMF. Un repérage des CMF donnant lieu à des synergies peut alors se faire. Nous obtenons après calcul des FIC Index le tableau suivant :
La synergie peut être mise en évidence par le calcul des Index FIC (Fractional Inhibitory Concentration) des produits. Pour cela, on mesure la valeur de la CMF (ou Concentration Minimale Fongistatique) des principes actifs à tester vis-à-vis d'un type de germe.
Le FIC d'un produit A est défini comme : FICA =(CMF du produit A en association)/(CMF du produit A seul) [formula]
L'association de deux antifongiques A et B est synergique si la somme FIC des rapports (FICA et FICB) est inférieure ou égale à 0,75.
Plus la valeur FIC est faible, plus la synergie est importante.
On considère qu'il y a simple additivité pour des valeurs de FIC comprises entre 0,75 et 1,1 et indifférente dans l'intervalle compris entre 1,1 et 2; au-delà, l'association est notée antagoniste.

Assay [2] relates to Malassezia. Description: Antifungal activity on Malassezia, general statements in the description. The settings on record: alone.
Assay [3] has as its system Malassézia furfur IP 1363-82; Malassezia furfur sauvage. Briefly: Determination of the minimal fungistatic concentration (CMF), serial two-fold dilution in Dixon broth in microplates. The settings on record: product alone, 32°C, 48 to 72 h. As to the method:
as §1
• une distribution de 100µl de bouillon Dixon est réalisée dans chaque cupule de la microplaque stérile. • une distribution de 100µl des différents produits a lieu dans une cupule, une cupule par produit (on est alors à 50% d'actif). • une série de dilutions sériées au demi est ensuite réalisée contre un témoin stérilité du milieu de culture et un autre témoin de la vigueur de la souche.
L'ensemencement de la microplaque a lieu sous atmosphère stérile après préparation de l'inoculum fongique comme suit : […]

For `CCCCCCCCCCC=O` [Ald. C11, undécanal], the “CMF % Associés” value in assay [1] was 0,0001 – 0,03%.
For the compound `CC1=C(/C=C/C(C)=C/C=C/C(C)=C/C=O)C(C)(C)CCC1` [Rétinal, Trans rétinal], in assay [2], the “action sur les levures telles Malassezia” value was “ne possède pas d'action notoire”. For the same compound, the “CMF % Associés” value in assay [1] is recorded as 0,06 – 0,25%. For the same compound, the “FIC Index” value in assay [1] (sum of FIC for the association Rétinal + Ald. C11, synergy if <= 0,75) is reported as 0,51 à 0,75. Also, in assay [3], the “CMF % Seuls” value was 0,25 – 0,5%.
